According to US12544547B2, “Gelatin-based microneedle patch for minimally-invasive extraction of bodily fluids” (THE REGENTS OF THE UNIVERSITY OF CALIFORNIA, priority 2020, dated 2026):
Where two headings read alike, the source gives them in different places.

Assays:
[1] = In vivo vancomycin detection in ISF versus plasma after intravenous vancomycin; parameters: species or system Wistar rats; settings: Wistar, rat, 1 mg/rat; for concentration at 5 min: 5 min after intravenous injection; for concentration at 30 min / concentration at 60 min: intravenous; for concentration at 30 min: 30 min following injection; for concentration at 60 min: 60 min after injection
Description: In vivo collection of ISF and glucose and vancomycin detection: All animal experiments were approved by the Animal Care and Use Committee of University of California, Los Angeles, and procedures for animals were performed in accordance with the relevant guidelines and regulations. Wistar rats (4-week-old, approximately 70-80 g) were anesthetized with 50 mg/kg sodium pentobarbital. The dorsal hair of each rat was shaved. After the initial mass of the GelMA patch 10 was weighed, it was applied to the dorsal skin of the rat using the thumb and index finger. Gauze was used to fix the patches 10 on the skin. ten minutes later, the patch 10 was removed and the final mass was recorded. To quantify the concentration of the delivered molecules, the wet patch 10 was transferred into a centrifuge tube with 200 μL of DI water. After centrifugation at 12000 rpm for 10 min, the solution in the tube was transferred to be tested. In addition, blood samples were also collected from the tail vein for glucose detection and the plasma was isolated via centrifugation for vancomycin detection. For histopathology, the skin was harvested and fixed in 10% neutral buffered formalin (BBC Biochemical, WA, USA), processed by a standard method, and embedded in paraffin. 4 μm in thickness tissue sections were stained with hematoxylin and eosin (H&E, BBC Biochemical) to confirm that GelMA microneedles 14 effectively penetrate the skin.
In the glucose detection experiment, the rats were intravenously injected with 1 mL of 0.2 g/mL glucose in saline. The glucose concentrations in ISF were tested using Glucose Assay Kit (Sigma) and the glucose levels in blood were tested using a glucometer (Clarity Diagnostics, US). In the vancomycin detection experiment, the rats were intravenously injected with 1 mL vancomycin at a concentration of 1 mg/mL in saline. The vancomycin concentration in ISF and plasma samples was also quantified by LC-MS/MS analysis (mentioned above).

[2] = parameters: species or system Wistar rats; settings: rat, in vivo
[3] = interstitial fluid (ISF), read-out: vancomycin concentration in ISF
[4] = plasma, read-out: vancomycin concentration in plasma

| Compound | concentration at 5 min [1, 3] [ng/mL] | concentration at 30 min [1, 3] [ng/mL] | concentration at 60 min [1, 3] [ng/mL] | concentration at 5 min [1, 4] [ng/mL] | concentration at 30 min [1, 4] [ng/mL] | concentration at 60 min [1, 4] [ng/mL] | skin recovery time after removing the patch [2] [min] |
| --- | --- | --- | --- | --- | --- | --- | --- |
| CN[C@H](CC(C)C)C(=O)N[C@H]1C(=O)N[C@@H](CC(N)=O)C(=O)N[C@H]2C(=O)N[C@H]3C(=O)N[C@H](C(=O)N[C@H](C(=O)O)c4cc(O)cc(O)c4-c4cc3ccc4O)[C@H](O)c3ccc(c(Cl)c3)Oc3cc2cc(c3O[C@@H]2O[C@H](CO)[C@@H](O)[C@H](O)[C@H]2O[C@H]2C[C@](C)(N)[C@H](O)[C@H](C)O2)Oc2ccc(cc2Cl)[C@H]1O [vancomycin] | 5930 ± 180 | ~6500 | ~4000 | 8270 ± 130 | ~6500 | ~4000 |  |
| gelatin methacryloyl (GelMA) [GelMA microneedle patch] |  |  |  |  |  |  | ≤ 20 |
